We go through five compounds from article PMC12029836, “Phytotoxicity, Cytotoxicity, and Antimicrobial Activity of Triethanolammonium Amino Acids Salts” (Molecules, 2025).

Assay [1] deals with Lepidium sativum L. seeds. The settings on record: 24 h incubation, mean(±SD), n = 3.
For assay [2], the system named is Lepidium sativum L. roots. The settings on record: 24 h incubation, mean(±SD), n = 3.
Where [3] appears, read: 0.01% (w/w) compound in the medium.
The mark [4] stands for this setting: 0.03% (w/w) compound in the medium.
[5] abbreviates: 0.05% (w/w) compound in the medium.
Where [6] appears, read: 0.10% (w/w) compound in the medium.
[7] abbreviates: 0.30% (w/w) compound in the medium.
Where [8] appears, read: 0.50% (w/w) compound in the medium.
Where [9] appears, read: 1.00% (w/w) compound in the medium.
[10] abbreviates: 2.00% (w/w) compound in the medium.
Setting [11] is: 3.00% (w/w) compound in the medium.
Setting [12] is: 4.00% (w/w) compound in the medium.
Setting [13] is: 5.00% (w/w) compound in the medium.

Where two headings read alike, the source gives them in different places.

For `N[C@@H](CC(=O)O)C(=O)O.OCCN(CCO)CCO.OCCN(CCO)CCO` [[TEA]2[Asp]], the “Inhibition of the Lepidium sativum seeds germination (ISG, %)” value (from here on “Inhibition … (ISG, %)”) in assay [1] (setting [3]) was 1.8(±0.1) %; in assay [1] (setting [4]), 3.6(±1.3) %; in assay [1] (setting [5]) it was 7.3(±0.8) %; in assay [1] (setting [6]), 9.1(±0.5) %; in assay [1] (setting [7]), 12.7(±0.8) %; in assay [1] (setting [8]), 16.4(±1.3) %. Also, the “Inhibition … (ISG, %)” value was 18.2(±0.8) % in assay [1] (setting [9]); 19.1(±1.3) % in assay [1] (setting [10]); 20.0(±0.5) % in assay [1] (setting [11]); 30.9(±0.9) % in assay [1] (setting [12]); 50.9(±0.8) % in assay [1] (setting [13]). In addition, the “Inhibition of the root growth in pregerminated Lepidium sativum seeds (IRG, %)” value (shortened to “Inhibition of the root growth … (IRG, %)”) in assay [2] (setting [3]) is reported as 7.7(±1.9) %; in assay [2] (setting [4]), 8.6(±2.1) %; in assay [2] (setting [5]) it was 11.6(±1.9) %; in assay [2] (setting [6]), 29.6(±2.0) %; in assay [2] (setting [7]), 32.6(±1.5) %; in assay [2] (setting [8]) it was 36.6(±1.6) %. In addition, the “Inhibition of the root growth … (IRG, %)” value was 40.7(±1.2) % in assay [2] (setting [9]); 65.4(±0.7) % in assay [2] (setting [10]); 76.7(±0.7) % in assay [2] (setting [11]); 82.2(±0.6) % in assay [2] (setting [12]); 86.2(±0.5) % in assay [2] (setting [13]).
As for `NC(CCC(=O)O)C(=O)O.OCCN(CCO)CCO.OCCN(CCO)CCO` (stereo not shown) [[TEA]2[Glu]], the “Inhibition … (ISG, %)” value in assay [1] (setting [3]) is 0.0(±0.0) %; in assay [1] (setting [4]) it was 0.0(±0.0) %; in assay [1] (setting [5]), 0.0(±0.0) %; in assay [1] (setting [6]), 3.7(±0.9) %; in assay [1] (setting [7]), 5.6(±0.9) %; in assay [1] (setting [8]), 7.4(±0.9) %. Besides, the “Inhibition … (ISG, %)” value in assay [1] (setting [9]) is 14.8(±2.5) %; in assay [1] (setting [10]), 22.2(±2.2) %; in assay [1] (setting [11]) it was 29.6(±1.7) %; in assay [1] (setting [12]) it was 37.0(±0.5) %; in assay [1] (setting [13]), 63.0(±0.5) %. The “Inhibition of the root growth … (IRG, %)” value in assay [2] (setting [3]) is given as 10.0(±2.9%; in assay [2] (setting [4]), 18.1(±2.7) %; in assay [2] (setting [5]), 21.3(±2.7) %; in assay [2] (setting [8]), 44.4(±2.2) %; in assay [2] (setting [9]), 51.5(±2.1) %; in assay [2] (setting [10]), 68.2(±1.3) %. Moreover, the figures for the “Inhibition of the root growth … (IRG, %)” value in assay [2] (setting [11]), in assay [2] (setting [12]) and in assay [2] (setting [13]) were 78.5(±0.6) %, 87.0(±0.4) % and 90.5(±0.7) %, respectively.
On to `NC(=O)C[C@H](N)C(=O)O.OCCN(CCO)CCO` [[TEA][Asn]], for which the “Inhibition … (ISG, %)” value in assay [1] (setting [3]) is 5.6(±2.9) %; in assay [1] (setting [4]) it was 6.5(±1.3) %; in assay [1] (setting [5]) it was 7.4(±0.5) %; in assay [1] (setting [6]) it was 9.3(±1.3) %; in assay [1] (setting [7]) it was 12.0(±0.9) %; in assay [1] (setting [8]) it was 14.8(±2.4) %. Besides, the “Inhibition … (ISG, %)” value in assay [1] (setting [9]) is given as 20.4(±2.6) %; in assay [1] (setting [10]), 33.3(±2.9) %; in assay [1] (setting [11]), 46.3(±0.9) %; in assay [1] (setting [12]), 67.6(±2.9) %; in assay [1] (setting [13]), 88.9(±1.4) %. The “Inhibition of the root growth … (IRG, %)” value is listed as 4.5(±1.6) % in assay [2] (setting [3]); 11.6(±1.6) % in assay [2] (setting [4]); 16.0(±1.6) % in assay [2] (setting [5]); 32.5(±1.7) % in assay [2] (setting [6]); 34.9% in assay [2] (setting [7]); 42.7(±1.5) % in assay [2] (setting [8]). Also, the “Inhibition of the root growth … (IRG, %)” value in assay [2] (setting [9]) is given as 58.9(±1.1) %; in assay [2] (setting [10]) it was 76.9(±1.0) %; in assay [2] (setting [11]) it was 81.5(±0.9) %; in assay [2] (setting [12]), 85(±0.8) %; in assay [2] (setting [13]), 88.2(±0.7) %.
Turning to `NC(=O)CCC(N)C(=O)O.OCCN(CCO)CCO` (stereo not shown) [[TEA][Gln]], the “Inhibition … (ISG, %)” value is on record as 0.0(±0.0) % in assay [1] (setting [3]); 0.0(±0.0) % in assay [1] (setting [4]); 0.0(±0.0) % in assay [1] (setting [5]); 1.7(±2.2) % in assay [1] (setting [6]); 9.2(±1.3) % in assay [1] (setting [7]); 15.0(±0.5) % in assay [1] (setting [8]). The “Inhibition … (ISG, %)” value is 20.8(±2.6) % in assay [1] (setting [9]), 38.1(±2.1) % in assay [1] (setting [10]), 53.8(±2.5) % in assay [1] (setting [11]) and 86.7(±1.3) % in assay [1] (setting [12]). The “Inhibition of the root growth … (IRG, %)” value is reported as 13.0(±2.0) % in assay [2] (setting [3]); 20.7(±1.8) % in assay [2] (setting [4]); 21.0(±2.2) % in assay [2] (setting [5]); 26.9(±1.8) % in assay [2] (setting [6]); 50.5% in assay [2] (setting [7]); 63.6(±1.3) % in assay [2] (setting [8]). For the same compound, the “Inhibition of the root growth … (IRG, %)” value in assay [2] (setting [9]) is reported as 72.9(±0.9) %; in assay [2] (setting [10]), 78.1(±1.0) %; in assay [2] (setting [11]) it was 85.2(±0.9) %; in assay [2] (setting [12]), 92.4(±0.5) %; in assay [2] (setting [13]), 93.6(±0.5) %.
Consider `NCC(=O)O.OCCN(CCO)CCO` [[TEA][Gly]], for which the “Inhibition … (ISG, %)” value in assay [1] (setting [3]) is listed as 0.0(±0.5) %; in assay [1] (setting [4]) it was 0.0(±0.5) %; in assay [1] (setting [5]) it was 1.7 (±1.2) %; in assay [1] (setting [6]), 3.4 (±1.3) %; in assay [1] (setting [7]) it was 6.9 (±0.8) %; in assay [1] (setting [8]) it was 13.8(±2.6) %. The “Inhibition … (ISG, %)” value in assay [1] (setting [9]) is 20.7(±3.1) %; in assay [1] (setting [11]), 63.8%; in assay [1] (setting [12]), 81.0(±1.7) %; in assay [1] (setting [13]) it was 87.9(±0.9) %. For the same compound, the “Inhibition of the root growth … (IRG, %)” value in assay [2] (setting [3]) was 8.7%; in assay [2] (setting [4]), 16.2(±1.8) %; in assay [2] (setting [5]) it was 20.9(±2.0) %; in assay [2] (setting [6]), 20.6(±1.7) %; in assay [2] (setting [7]) it was 49.3(±1.3) %; in assay [2] (setting [8]), 62.3(±1.3) %. Moreover, the “Inhibition of the root growth … (IRG, %)” value in assay [2] (setting [9]) is reported as 75.7(±0.7) %; in assay [2] (setting [10]) it was 80.6(±0.6) %; in assay [2] (setting [11]), 93.3(±0.5) %; in assay [2] (setting [12]) it was 96.2(±0.4) %; in assay [2] (setting [13]) it was 95.9(±0.4) %.
